These results are taken from patent US9249159B2, “Composition for treating hepatitis C virus, regulating phosphorylation of replicase” (Industry-Academic Cooperation Foundation, Yonsei University, priority 2011, dated 2016).

Molecules are shown by their SMILES.

One assay deals with PRK2. Kind of assay: PRK2 level in Huh7 cell by immunoblotting. It counts as cell-based. The conditions noted are these: 500 nM, 48 hours. On the technique in general: In western blotting, separated proteins are transferred to a membrane and probed.
Assay [1] concerns genotype 2a HCV (JFH1)-infected Huh7 cells. Kind of assay: HCV RNA level in Huh7 cells infected with HCV (JFH1). It counts as cell-based, hepatitis C virus genotype 2a. To be noted: JFH1-infected Huh7 cell, 500 nM, 72 hours. On the procedure:
To do so, after the two cell lines were treated with the compound #17 at higher concentrations (60 and 100 μM) than 20 μM for 48 hours, an HCV RNA genome level was checked by a real-time RT-PCR analysis. A value was a mean±standard deviation (SD) of three independent measurements. HCV RNA titer was quantified by real-time PCR analysis. Three independent experiments were performed in triplicate.
Full-length, infectious HCV RNA of the genotype 2a HCV clone JFH1 was prepared by in vitro transcription using the MEGAscript T7 kit (Ambion, Austin, Tex., USA) and electroporated into Huh7 cells as described previously. Briefly, at 72 h post electroporation, culture medium was collected, cleared by low-speed centrifugation, and passed through a 0.45-μm filter (Millipore, Billerica, Mass., USA) before being used for infection of Huh7 cells. Cells were infected with HCV at a multiplicity of infection of 0.3 by adsorption for 3 h with periodic rocking, then washed three times with phosphate-buffered saline (PBS) and maintained in complete DMEM. […]
Total RNA was extracted from R-1 or HCV (JFH1)-infected cells using TRIzol LS reagent (Invitrogen, Carlsbad, Calif., USA) and purified according to the manufacturer's instructions. HCV RNA levels were quantified by RT-PCR using a primer pair and TaqMan probe targeting a region within the HCV 5′-UTR as described previously. […] Assays were performed using the DyNAmo Probe 2-step qRT-PCR Kit (Finnzymes, Espoo, Finland) and a CHROMO4 continuous fluorescence detector (Bio-Rad, Hercules, Calif., USA), according to the manufacturer's instructions.
In order to analyze whether or not 17-DMAG can inhibit replication in a cell infected with HCV, an experiment was carried out with the genotype 2a HCV infectious clone JFH1, which produces infectious virions in Huh7 or Huh7-derived cell lines. […] After 72 hours, total cellular RNA was extracted and HCV remaining in the infected cell was analyzed by quantitative RT-PCR.

A further assay has as its system HCV IRES. The assay can be described thus: Dual luciferase reporter assay of translation via HCV IRES in Huh7 cell. Format: cell-based, hepatitis C virus. The conditions noted are these: various concentrations, 72 hours. The source says:
The dual luciferase expression vector allowing cap-dependent translation of a Renilla (RLuc) reporter and HCV internal ribosome entry site (IRES)-mediated luciferase translation of a firefly luciferase (FLuc) reporter was constructed by inserting the HCV IRES and partial core protein-coding region fused to the cDNA for FLuc downstream of the Renilla luciferase reporter gene as described previously. Huh7 cells were transiently transfected with the bicistronic dual luciferase vector using Fugene HD (Roche Applied Science, Indianapolis, Ind., USA). RLuc and FLuc activities in cell lysates were quantified using the Dual-Glo luciferase assay kit (Promega) on the GloMax-Multi detection system (Promega).
Then, in order to observe an effect of 17-DMAG on translation via HCV IRES, a dual reporter assay was carried out. The Huh7 cell was transfected by a dual reporter assay plasmid (FIG. 11B, upper diagram), and treated with 17-DMAG at various concentrations for 72 hours. […] A level of the Firefly luciferase […] and a Renilla luciferase […] was measured by dual luciferase assay and expressed in % with respect to a control treated with DMSO (first bar). […]
(In general: In a reporter assay the amount or activity of a reporter protein is the signal.)

The subject of a further assay is Huh7 cells. The assay can be described thus: Cell cycle analysis of Huh7 cells by flow cytometer. It counts as cell-based, human. The conditions noted are these: 48 hours, 17-DMAG 500 nM. On the procedure: The Huh7 cell treated with 17-DMAG or HA1077 for 48 hours was collected and washed with PBS. The cells were fixed with chilled ethanol for 30 min, treated with RNase A (100 μg/ml) for 5 min at room temperature, stained with 50 μg/mL propidium iodide (PI, Sigma-Aldrich) for 30 min at 37° C., and analyzed using a FACS Calibur flow cytometer (Becton Dickinson, San Jose, Calif., USA).
Then, a cell cycle assay was carried out by using a flow cytometer. Huh7 cells were treated with DMSO (0.25%) or 500 nM of 17-DMAG for 48 hours, and a cell cycle thereof was analyzed by using a flow cytometer to show the percentage of cells in G1, S, and G2/M phases. LY294002 as a PI3K inhibitor was used as a positive control.
For orientation: In flow cytometry, cells or beads pass a laser one at a time.

A further assay concerns Rho-kinase I (ROCKI). Kind of assay: ROCKI level in Huh7 cell by immunoblotting. It counts as cell-based. To be noted: 48 hours.
The test system of the next assay is PDK1. The assay can be described thus: Steady state level of PDK1 in Huh7 cell by immunoblotting. Format: cell-based. To be noted: increasing concentration, 48 hours. The source says:
(§1) Total cell lysates from cells treated with inhibitors or IFN-α by using antibodies to PDK1, p-PDK1 (S241), PRK2, and p-PRK2 (T816) (products of Cell Signaling Technology, Inc., Beverly, Mass., USA) was used for immunoblotting. In order to detect PKC isoforms α, β, and γ, a polyclonal antibody to a consensus sequence present in three PKC (protein kinase C) isoforms α, β and γ (anti-pan-PKC; Zymed Laboratories, San Francisco, Calif., USA) was used. An anti-α-tubulin antibody (Oncogene Research Products, Cambridge, Mass., USA) was carried out in immunoblotting for checking whether or not the same amount of protein was loaded.
(§2) In order to test whether or not PDK1 in Huh7 as an HCC cell line was destabilized by inhibition of Hsp90, 17-DMAG as a second-generation geldanamycin derivative known as being safer than geldanamycin or its derivative 17-AAG and effective for oral delivery was used (FIG. 8A). The Huh7 cell was treated for 48 hours along with an increase in concentration of 17-DMAG, and a steady state level of PDK1 was evaluated by immunoblotting.

In a further assay the test system is pan-PKC (α, β, and γ). Kind of assay: pan-PKC level in Huh7 cell by immunoblotting. Format: cell-based. The conditions noted are these: 48 hours.
Excerpt: as §1, §2

Consider `CO[C@H]1/C=C\C=C(/C)C(=O)NC2=CC(=O)C(NCCN(C)C)=C(C[C@@H](C)C[C@H](OC)[C@H](O)[C@@H](C)/C=C(\C)[C@@H]1OC(N)=O)C2=O` [17-DMAG, 17-(dimethylaminoethylamino)-17-demethoxygeldanamycin], for which the “decrease of PRK2 level as compared with non-treated control” value with PRK2 is on record as “about 68%”. Besides, the “decrease of level of viral RNA” value in assay [1] is listed as “about 87%”. In the assay with HCV IRES, the “effect on translation via HCV IRES” value is “did not have an effect”. Besides, in the assay on Huh7 cells, the “cell cycle (G1, S, G2/M phases)” value is “not significantly changed”. Further, the “steady state content of Rho-kinase I (ROCKI)” value in the assay on Rho-kinase I (ROCKI) is on record as “not significantly affected”. Moreover, the PDK1 level entry in the assay on PDK1 is “gradually and significantly decreased”. Also, the “steady state content of pan-PKC (α, β, and γ)” value with pan-PKC (α, β, and γ) was “not significantly affected”.
